Assay results as given in patent US6689773B2, “Uracil substituted phenyl sulfamoyl carboxamides” (BASF Aktiengesellschaft, priority 2000, dated 2004).

What was measured:
Type in all cases: in vivo
[1] = test system: IPOHE, Morningglory, Ivyleaf, Ipomoea hederacea, (L)Jacq.; test: Preemergence herbicidal evaluation (Example 148); settings: rating scale 0-9, two to four weeks after treatment
Summary of the method: (§1)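 Seeds mixed with potting soil were sown on about one inch of soil in cups, then sprayed preemergence with test compound in aqueous acetone at roughly 0.125 to 0.250 kg per hectare. Plants were grown in the greenhouse and rated visually 2–4 weeks later against a control.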

[2] = test system: ZEAMX, Field corn, Zea mays L.; test: Preemergence herbicidal evaluation (Example 148); settings: rating scale 0-9, two to four weeks after treatment
Summary of the method: as §1

[3] = test system: SETVI, Green foxtail, Setaria viridis, (L.)Beau; test: Preemergence herbicidal evaluation (Example 148); settings: rating scale 0-9, two to four weeks after treatment
Summary of the method: as §1

[4] = test system: GLXMA, Soybean, Glycine max, (L.) Merr.; test: Preemergence herbicidal evaluation (Example 148); settings: rating scale 0-9, two to four weeks after treatment
Summary of the method: as §1

[5] = test system: ALOMY, Blackgrass, Alopecurus myosuroides; test: Preemergence herbicidal evaluation (Example 148); settings: rating scale 0-9, two to four weeks after treatment
Summary of the method: as §1

[6] = test system: AMBEL, Ragweed, Common, Ambrosia artemiisifolia, L.; test: Preemergence herbicidal evaluation (Example 148); settings: rating scale 0-9, two to four weeks after treatment
Summary of the method: as §1

[7] = test system: ABUTH, Velvetleaf, Abutilon theophrasti, Medic.; test: Preemergence herbicidal evaluation (Example 148); settings: rating scale 0-9, two to four weeks after treatment
Summary of the method: as §1

[8] = test system: TRZAW, Winter wheat, Tritium Aestivum, L. (Winter); test: Preemergence herbicidal evaluation (Example 148); settings: rating scale 0-9, two to four weeks after treatment
Summary of the method: as §1

[9] = test system: ECHCG, Barnyardgrass, Echinochloa crusgalli, (L.)Beau; test: Preemergence herbicidal evaluation (Example 148); settings: rating scale 0-9, two to four weeks after treatment
Summary of the method: as §1

[10] = test system: DIGSA, Crabgrass, (Hairy) L, Digitaria sanguinalis, (L)Scop; test: Preemergence herbicidal evaluation (Example 148); settings: rating scale 0-9, two to four weeks after treatment
Summary of the method: as §1

[11] = test system: CHEAL, Lambsquarters, Chenopodium album, L. Common; test: Preemergence herbicidal evaluation (Example 148); settings: rating scale 0-9, two to four weeks after treatment
Summary of the method: as §1

[12] = test system: XANST, Cocklebur, Xanthium strumariam; test: Preemergence herbicidal evaluation (Example 148); settings: rating scale 0-9, two to four weeks after treatment
Summary of the method: as §1

[13] = test system: IPOHE, Morningglory, Ivyleaf, Ipomoea hederacea, (L)Jacq.; test: Postemergence herbicidal evaluation (Example 147); settings: rating scale 0-9, two to three weeks after treatment
Summary of the method: (§2)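 Values are 0-9 visual scores, averaged over repeat tests where available. Seedlings of about two weeks were sprayed with roughly 0.016 to 0.032 kg/ha in 80/20 acetone/water plus 1.0% seed oil, then held in the greenhouse two to three weeks.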

[14] = test system: ZEAMX, Field corn, Zea mays L.; test: Postemergence herbicidal evaluation (Example 147); settings: rating scale 0-9, two to three weeks after treatment
Summary of the method: as §2

[15] = test system: SETVI, Green foxtail, Setaria viridis, (L.)Beau; test: Postemergence herbicidal evaluation (Example 147); settings: rating scale 0-9, two to three weeks after treatment
Summary of the method: as §2

[16] = test system: GLXMA, Soybean, Glycine max, (L.) Merr.; test: Postemergence herbicidal evaluation (Example 147); settings: rating scale 0-9, two to three weeks after treatment
Summary of the method: as §2

[17] = test system: ALOMY, Blackgrass, Alopecurus myosuroides; test: Postemergence herbicidal evaluation (Example 147); settings: rating scale 0-9, two to three weeks after treatment
Summary of the method: as §2

[18] = test system: AMBEL, Ragweed, Common, Ambrosia artemiisifolia, L.; test: Postemergence herbicidal evaluation (Example 147); settings: rating scale 0-9, two to three weeks after treatment
Summary of the method: as §2

[19] = test system: ABUTH, Velvetleaf, Abutilon theophrasti, Medic.; test: Postemergence herbicidal evaluation (Example 147); settings: rating scale 0-9, two to three weeks after treatment
Summary of the method: as §2

[20] = test system: TRZAW, Winter wheat, Tritium Aestivum, L. (Winter); test: Postemergence herbicidal evaluation (Example 147); settings: rating scale 0-9, two to three weeks after treatment
Summary of the method: as §2

[21] = test system: ECHCG, Barnyardgrass, Echinochloa crusgalli, (L.)Beau; test: Postemergence herbicidal evaluation (Example 147); settings: rating scale 0-9, two to three weeks after treatment
Summary of the method: as §2

[22] = test system: DIGSA, Crabgrass, (Hairy) L, Digitaria sanguinalis, (L)Scop; test: Postemergence herbicidal evaluation (Example 147); settings: rating scale 0-9, two to three weeks after treatment
Summary of the method: as §2

[23] = test system: CHEAL, Lambsquarters, Chenopodium album, L. Common; test: Postemergence herbicidal evaluation (Example 147); settings: rating scale 0-9, two to three weeks after treatment
Summary of the method: as §2

[24] = test system: XANST, Cocklebur, Xanthium strumariam; test: Postemergence herbicidal evaluation (Example 147); settings: rating scale 0-9, two to three weeks after treatment
Summary of the method: as §2

SMILES: CC(C)N(C)S(=O)(=O)NC(=O)c1cc(-n2c(=O)cc(C(F)(F)F)n(N)c2=O)c(F)cc1Cl [Example 76]
- Preemergence herbicidal rating IPOHE ([1]; rate 0.125 kg/ha): 5.0
- Preemergence herbicidal rating IPOHE ([1]; rate 0.25 kg/ha): 9.0
- Preemergence herbicidal rating ZEAMX ([2]; rate 0.125 kg/ha): 1.0
- Preemergence herbicidal rating ZEAMX ([2]; rate 0.25 kg/ha): 1.0
- Preemergence herbicidal rating SETVI ([3]; rate 0.125 kg/ha): 1.0
- Preemergence herbicidal rating SETVI ([3]; rate 0.25 kg/ha): 2.0
- Preemergence herbicidal rating GLXMA ([4]; rate 0.125 kg/ha): 1.0
- Preemergence herbicidal rating GLXMA ([4]; rate 0.25 kg/ha): 3.0
- Preemergence herbicidal rating ALMOY ([5]; rate 0.125 kg/ha): 0.0
- Preemergence herbicidal rating ALMOY ([5]; rate 0.25 kg/ha): 2.0
- Preemergence herbicidal rating AMBEL ([6]; rate 0.125 kg/ha): 8.0
- Preemergence herbicidal rating AMBEL ([6]; rate 0.25 kg/ha): 9.0
- Preemergence herbicidal rating ABUTH ([7]; rate 0.125 kg/ha): 9.0
- Preemergence herbicidal rating ABUTH ([7]; rate 0.25 kg/ha): 9.0
- Preemergence herbicidal rating TRZAW ([8]; rate 0.125 kg/ha): 0.0
- Preemergence herbicidal rating TRZAW ([8]; rate 0.25 kg/ha): 1.0
- Preemergence herbicidal rating ECHCG ([9]; rate 0.125 kg/ha): 1.0
- Preemergence herbicidal rating ECHCG ([9]; rate 0.25 kg/ha): 2.0
- Preemergence herbicidal rating DIGSA ([10]; rate 0.125 kg/ha): 2.0
- Preemergence herbicidal rating DIGSA ([10]; rate 0.25 kg/ha): 3.0
- Preemergence herbicidal rating CHEAL ([11]; rate 0.125 kg/ha): 8.0
- Preemergence herbicidal rating CHEAL ([11]; rate 0.25 kg/ha): 9.0
- Preemergence herbicidal rating XANST ([12]; rate 0.125 kg/ha): 3.0
- Preemergence herbicidal rating XANST ([12]; rate 0.25 kg/ha): 5.0
- Postemergence herbicidal rating IPOHE ([13]; rate 0.016 kg/ha): 9.0
- Postemergence herbicidal rating IPOHE ([13]; rate 0.032 kg/ha): 9.0
- Postemergence herbicidal rating ZEAMX ([14]; rate 0.016 kg/ha): 5.5
- Postemergence herbicidal rating ZEAMX ([14]; rate 0.032 kg/ha): 6.5
- Postemergence herbicidal rating SETVI ([15]; rate 0.016 kg/ha): 5.0
- Postemergence herbicidal rating SETVI ([15]; rate 0.032 kg/ha): 6.0
- Postemergence herbicidal rating GLXMA ([16]; rate 0.016 kg/ha): 7.5
- Postemergence herbicidal rating GLXMA ([16]; rate 0.032 kg/ha): 7.5
- Postemergence herbicidal rating ALMOY ([17]; rate 0.016 kg/ha): 1.0
- Postemergence herbicidal rating ALMOY ([17]; rate 0.032 kg/ha): 1.0
- Postemergence herbicidal rating AMBEL ([18]; rate 0.016 kg/ha): 8.0
- Postemergence herbicidal rating AMBEL ([18]; rate 0.032 kg/ha): 8.0
- Postemergence herbicidal rating ABUTH ([19]; rate 0.016 kg/ha): 9.0
- Postemergence herbicidal rating ABUTH ([19]; rate 0.032 kg/ha): 9.0
- Postemergence herbicidal rating TRZAW ([20]; rate 0.016 kg/ha): 5.0
- Postemergence herbicidal rating TRZAW ([20]; rate 0.032 kg/ha): 6.0
- Postemergence herbicidal rating ECHCG ([21]; rate 0.016 kg/ha): 5.0
- Postemergence herbicidal rating ECHCG ([21]; rate 0.032 kg/ha): 6.0
- Postemergence herbicidal rating DIGSA ([22]; rate 0.016 kg/ha): 3.0
- Postemergence herbicidal rating DIGSA ([22]; rate 0.032 kg/ha): 4.0
- Postemergence herbicidal rating CHEAL ([23]; rate 0.016 kg/ha): 6.0
- Postemergence herbicidal rating CHEAL ([23]; rate 0.032 kg/ha): 6.0
- Postemergence herbicidal rating XANST ([24]; rate 0.016 kg/ha): 9.0
- Postemergence herbicidal rating XANST ([24]; rate 0.032 kg/ha): 9.0

SMILES: CC(C)N(C(C)C)S(=O)(=O)NC(=O)c1cc(-n2c(=O)cc(C(F)(F)F)n(C)c2=O)c(F)cc1Cl [Example 60]
- Preemergence herbicidal rating IPOHE ([1]; rate 0.125 kg/ha): 7.0
- Preemergence herbicidal rating IPOHE ([1]; rate 0.25 kg/ha): 6.0
- Preemergence herbicidal rating ZEAMX ([2]; rate 0.125 kg/ha): 0.0
- Preemergence herbicidal rating ZEAMX ([2]; rate 0.25 kg/ha): 0.0
- Preemergence herbicidal rating SETVI ([3]; rate 0.125 kg/ha): 5.0
- Preemergence herbicidal rating SETVI ([3]; rate 0.25 kg/ha): 9.0
- Preemergence herbicidal rating GLXMA ([4]; rate 0.125 kg/ha): 0.0
- Preemergence herbicidal rating GLXMA ([4]; rate 0.25 kg/ha): 6.0
- Preemergence herbicidal rating ALMOY ([5]; rate 0.125 kg/ha): 0.0
- Preemergence herbicidal rating ALMOY ([5]; rate 0.25 kg/ha): 0.0
- Preemergence herbicidal rating AMBEL ([6]; rate 0.125 kg/ha): 9.0
- Preemergence herbicidal rating AMBEL ([6]; rate 0.25 kg/ha): 9.0
- Preemergence herbicidal rating ABUTH ([7]; rate 0.125 kg/ha): 9.0
- Preemergence herbicidal rating ABUTH ([7]; rate 0.25 kg/ha): 9.0
- Preemergence herbicidal rating TRZAW ([8]; rate 0.125 kg/ha): 0.0
- Preemergence herbicidal rating TRZAW ([8]; rate 0.25 kg/ha): 0.0
- Preemergence herbicidal rating ECHCG ([9]; rate 0.125 kg/ha): 0.0
- Preemergence herbicidal rating ECHCG ([9]; rate 0.25 kg/ha): 4.0
- Preemergence herbicidal rating DIGSA ([10]; rate 0.125 kg/ha): 6.0
- Preemergence herbicidal rating DIGSA ([10]; rate 0.25 kg/ha): 6.0
- Preemergence herbicidal rating CHEAL ([11]; rate 0.125 kg/ha): 9.0
- Preemergence herbicidal rating CHEAL ([11]; rate 0.25 kg/ha): 9.0
- Preemergence herbicidal rating XANST ([12]; rate 0.125 kg/ha): 0.0
- Preemergence herbicidal rating XANST ([12]; rate 0.25 kg/ha): 4.0
- Postemergence herbicidal rating IPOHE ([13]; rate 0.016 kg/ha): 9.0
- Postemergence herbicidal rating IPOHE ([13]; rate 0.032 kg/ha): 9.0
- Postemergence herbicidal rating ZEAMX ([14]; rate 0.016 kg/ha): 8.0
- Postemergence herbicidal rating ZEAMX ([14]; rate 0.032 kg/ha): 8.0
- Postemergence herbicidal rating SETVI ([15]; rate 0.016 kg/ha): 8.0
- Postemergence herbicidal rating SETVI ([15]; rate 0.032 kg/ha): 9.0
- Postemergence herbicidal rating GLXMA ([16]; rate 0.016 kg/ha): 8.5
- Postemergence herbicidal rating GLXMA ([16]; rate 0.032 kg/ha): 8.5
- Postemergence herbicidal rating ALMOY ([17]; rate 0.016 kg/ha): 3.0
- Postemergence herbicidal rating ALMOY ([17]; rate 0.032 kg/ha): 3.0
- Postemergence herbicidal rating AMBEL ([18]; rate 0.016 kg/ha): 9.0
- Postemergence herbicidal rating AMBEL ([18]; rate 0.032 kg/ha): 9.0
- Postemergence herbicidal rating ABUTH ([19]; rate 0.016 kg/ha): 9.0
- Postemergence herbicidal rating ABUTH ([19]; rate 0.032 kg/ha): 9.0
- Postemergence herbicidal rating TRZAW ([20]; rate 0.016 kg/ha): 6.0
- Postemergence herbicidal rating TRZAW ([20]; rate 0.032 kg/ha): 6.0
- Postemergence herbicidal rating ECHCG ([21]; rate 0.016 kg/ha): 8.0
- Postemergence herbicidal rating ECHCG ([21]; rate 0.032 kg/ha): 7.0
- Postemergence herbicidal rating DIGSA ([22]; rate 0.016 kg/ha): 6.0
- Postemergence herbicidal rating DIGSA ([22]; rate 0.032 kg/ha): 7.0
- Postemergence herbicidal rating CHEAL ([23]; rate 0.016 kg/ha): 8.0
- Postemergence herbicidal rating CHEAL ([23]; rate 0.032 kg/ha): 9.0
- Postemergence herbicidal rating XANST ([24]; rate 0.016 kg/ha): 9.0
- Postemergence herbicidal rating XANST ([24]; rate 0.032 kg/ha): 9.0
